The source of these data is US20030224076A1, “Anti-inflammatory and chemopreventive composition” (priority 2002, published 2003).

The nature of assay [1]: Reactivity toward the mediator of inflammation hypochlorous acid (ethene liberation from ACC, GC). As to conditions: HOCl 25 μM, ACC 1 mM, pH 5.7, 37° C., 30 minutes. Type of assay: biochemical. From the text: Reactivity Toward the Mediator of Inflammation Hypochlorous Acid (HOCl) Cytotoxic hypochlorous acid is a specific product of phagocytosis-competent neutrophilic granulocytes. It is used to kill phagocytosed bacteria and viruses inside these leukocytes. Hypochlorous acid is, however, secreted through the leukocyte membrane into the extracellular medium, i.e. into the surrounding tissue, and there proves to be responsible for unwanted reactions like those observed at foci of inflammation (pain, reddening, swelling). A possible procedure for detecting the reactivity toward HOCI is as follows. HOCI liberates ethene specifically from ACC (1-aminocyclopropane-1-carboxylic acid), and the ethene is determined by gas chromatography. The following mixture is chosen to examine the interaction of the test substance in this model system: [table] The hypochlorous acid is allowed to interact with the bulking agents for 30 seconds and only then is the indicator molecule ACC added. The volume-calibrated reaction vessels which are closed gas-tight are then incubated at 37° C. for 30 minutes, and the ethene liberation is measured by GC. 5-aminosalicylate is employed in concentrations of 0.5-100 μM as positive control.

A further assay deals with Caco-2 cells. The experiment in a line: Protection of intestinal cells from genotoxic agents (comet assay, menadione-induced DNA damage). The class given is cell-based, human. The conditions noted are these: menadione 2 μM alone (induced DNA damage). On the procedure: The procedure for the method is as follows: The human colon adenocarcinoma cell line Caco-2 was cultivated in Dulbecco's MEM/nut mix F-12 Ham medium (Gibco) with 20% FCS (Gibco) and 1% penicillin/streptomycin (Gibco). The cells were seeded in Petri dishes (ø 35 mm) 24 h before substance incubation. After incubation with the physiological extract from carob fiber (stock solution: 10% w/v carob fiber, Caromax™, Nutrinova, in cell culture medium, working solutions: 0.001-1%), the cells were washed with PBS buffer solution (phosphate buffered salt solution) and subsequently treated with the DNA-damaging agent menadione (2 μM) and trypsinized/centrifuged. This was followed by testing for the preventive activity of the carob fiber extracts. The modulation of DNA damage by the carob fiber extracts compared with the untreated control was checked by single-cell gel electrophoresis (comet assay). The extent of DNA damage was quantified from the proportion of DNA in the comet tail (% tail intensity, TI %). The independent baseline damage was always also measured in control tests.

`Nc1ccc(O)c(C(=O)O)c1` [5-Aminosalicylate, 5-aminosalicylate]: the “Amount of ethene liberated from ACC in %” value in assay [1] (5-aminosalicylate 0.5 μM) is on record as 100%; in assay [1] (5-aminosalicylate 1 μM), 92%; in assay [1] (5-aminosalicylate 5 μM), 52%; in assay [1] (5-aminosalicylate 10 μM), 13%; in assay [1] (5-aminosalicylate 50 μM), 5%; in assay [1] (5-aminosalicylate 100 μM), 3%.

Take `CC1=CC(=O)c2ccccc2C1=O` [menadione]: the “TI % (proportion of DNA in the comet tail, % tail intensity)” value in the assay with Caco-2 cells was 13.6%.
